This is an account of results in patent US12378249B2, “Isoquinoline compounds and uses thereof” (Genentech, Inc., priority 2018, dated 2025).

HPK1, sequence (Q92918 whole entry T165E/S171E): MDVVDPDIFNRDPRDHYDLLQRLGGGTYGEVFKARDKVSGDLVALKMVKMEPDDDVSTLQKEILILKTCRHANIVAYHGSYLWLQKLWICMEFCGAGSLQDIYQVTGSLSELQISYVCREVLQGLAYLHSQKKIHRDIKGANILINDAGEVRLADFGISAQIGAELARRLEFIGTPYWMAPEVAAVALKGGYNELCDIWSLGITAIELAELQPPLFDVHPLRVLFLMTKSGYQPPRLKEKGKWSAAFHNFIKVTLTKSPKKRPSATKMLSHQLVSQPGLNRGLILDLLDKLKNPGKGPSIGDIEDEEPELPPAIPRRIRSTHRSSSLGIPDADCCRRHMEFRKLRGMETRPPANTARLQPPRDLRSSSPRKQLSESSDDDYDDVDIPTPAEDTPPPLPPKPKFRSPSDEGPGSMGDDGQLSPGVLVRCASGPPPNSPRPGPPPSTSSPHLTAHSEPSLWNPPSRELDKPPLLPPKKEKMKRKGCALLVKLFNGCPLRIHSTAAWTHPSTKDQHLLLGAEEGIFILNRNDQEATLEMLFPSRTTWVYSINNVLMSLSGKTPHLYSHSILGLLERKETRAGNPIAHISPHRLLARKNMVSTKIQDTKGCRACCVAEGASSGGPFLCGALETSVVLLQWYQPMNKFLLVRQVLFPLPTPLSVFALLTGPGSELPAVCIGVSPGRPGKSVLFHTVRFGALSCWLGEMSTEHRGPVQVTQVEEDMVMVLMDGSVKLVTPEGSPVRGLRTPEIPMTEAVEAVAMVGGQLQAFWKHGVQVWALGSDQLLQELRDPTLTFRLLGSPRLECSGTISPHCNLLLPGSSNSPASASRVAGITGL

This experiment addresses HPK1 (Homo sapiens (Human), UniProt Q92918, S171E/T165E). The experiment is described as follows: HPK1-FL HTRF Enzymatic Assay (HTRF). It is filed as biochemical. Particulars: HPK full length T165E S171E 0.125 nM, ATP 1 mM, Biotin-SLP76 100 nM, read-out: HPK1 Ki (nM), H = HTRF. Put shortly: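 Ki derived from % activity calculated from the TR-FRET 665/620 ratio, using Eu-anti-pSLP76 and SA-XL665 detection added for 60 min. Reaction: compound preincubated 30 min with full-length double-mutant HPK1, then 60 min with Biotin-SLP-76 and 1 mM ATP, pH 7.5 HEPES buffer.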
As for `Cc1c[nH]c2c(C)c(-c3cc4cc(Nc5cc6n(n5)CC(=O)N(C)CC6)ncc4cc3F)cnc12` [Compound 195, 2-((6-(3,7-dimethyl-1H-pyrrolo[3,2-b]pyridin-6-yl)-7-fluoroisoquinolin-3-yl)amino)-6-methyl-5,6-dihydro-4H-pyrazolo[1,5-d] [1,4]diazepin-7(8H)-one], the inhibitory constant (Ki) was found to be 0.26 nM. As to `Cc1c(-c2cc3cc(Nc4cc5n(n4)CC(=O)NCC5)ncc3cc2F)cnc2c1NCCC2=O` [Compound 196, 2-((7-fluoro-6-(4-methyl-8-oxo-5,6,7,8-tetrahydro-1,5-naphthyridin-3-yl)isoquinolin-3-yl)amino)-5,6-dihydro-4H-pyrazolo[1,5-d][1,4]diazepin-7(8H)-one], the Ki was 0.1 nM. As for `Cc1c(NS(=O)(=O)C2CC2)cncc1-c1cc2cc(Nc3cc4n(n3)CC(=O)N(C)CC4)ncc2cc1F` [Compound 197, N-(5-(7-fluoro-3-((6-methyl-7-oxo-5,6,7,8-tetrahydro-4H-pyrazolo[1,5-d][1,4]diazepin-2-yl)amino)isoquinolin-6-yl)-4-methylpyridin-3-yl)cyclopropanesulfonamide], the inhibition constant (Ki) was 4.1 nM.

Turning to `Cc1cc(N2CCNCC2)ncc1-c1cc2cc(Nc3cc4n(n3)CC(=O)N(C)CC4)ncc2cc1F` [Compound 198, 2-((7-fluoro-6-(4-methyl-6-(piperazin-1-yl)pyridin-3-yl)isoquinolin-3-yl)amino)-6-methyl-5,6-dihydro-4H-pyrazolo[1,5-d][1,4]diazepin-7(8H)-one], the Ki amounted to 4.2 nM. With `CNC1CCN(c2cc(C)c(-c3cc4cc(Nc5cc6n(n5)CC(=O)N(C)CC6)ncc4cc3F)cn2)CC1` [Compound 199, 2-((7-fluoro-6-(4-methyl-6-(4-(methylamino)piperidin-1-yl)pyridin-3-yl)isoquinolin-3-yl)amino)-6-methyl-5,6-dihydro-4H-pyrazolo[1,5-d][1,4]diazepin-7(8H)-one], the Ki amounted to 5 nM. As to `CN1CCc2cc(Nc3cc4cc(-c5cccc6c5CCNC6)c(F)cc4cn3)nn2CC1=O` [Compound 200, 2-((7′-fluoro-1,2,3,4-tetrahydro-[5,6′-biisoquinolin]-3′-yl)amino)-6-methyl-5,6-dihydro-4H-pyrazolo[1,5-d][1,4]diazepin-7(8H)-one], the Ki was found to be 127 nM. `Cc1[nH]ncc1-c1cc2cc(Nc3cc4n(n3)CC(=O)N(C)CC4)ncc2c(O)c1F` [Compound 202, 2-((7-fluoro-8-hydroxy-6-(5-methyl-1H-pyrazol-4-yl)isoquinolin-3-yl)amino)-6-methyl-5,6-dihydro-4H-pyrazolo[1,5-d][1,4]diazepin-7(8H)-one]: the Ki amounted to 119 nM. Regarding `Cc1c(-c2cc3cc(Nc4cc5n(n4)CC(=O)N(C)CC5)ncc3cc2F)cnc(=O)n1C` [Compound 203, 2-((6-(1,6-dimethyl-2-oxo-1,2-dihydropyrimidin-5-yl)-7-fluoroisoquinolin-3-yl)amino)-6-methyl-5,6-dihydro-4H-pyrazolo[1,5-d][1,4]diazepin-7(8H)-one], the Ki amounted to 97 nM. As to `Cc1c(CS(C)(=O)=O)cncc1-c1cc2cc(Nc3cc4n(n3)CC(=O)N(C)CC4)ncc2cc1F` [Compound 204, 2-((7-fluoro-6-(4-methyl-5-((methylsulfonyl)methyl)pyridin-3-yl)isoquinolin-3-yl)amino)-6-methyl-5,6-dihydro-4H-pyrazolo[1,5-d][1,4]diazepin-7(8H)-one], the inhibition constant Ki is 0.18 nM. With `Cc1c(CN)cccc1-c1cc2cc(Nc3cc4n(n3)CC(=O)N(C)CC4)ncc2cc1F` [Compound 207, 2-((6-(3-(aminomethyl)-2-methylphenyl)-7-fluoroisoquinolin-3-yl)amino)-6-methyl-5,6-dihydro-4H-pyrazolo[1,5-d][1,4]diazepin-7(8H)-one], the Ki was determined as 22 nM. The value for `Cc1c(-c2cc3cc(Nc4cc5n(n4)CC(=O)N(C)CC5)ncc3cc2F)cnc2c1NCCC2(F)F` [Compound 208, 2-((6-(8,8-difluoro-4-methyl-5,6,7,8-tetrahydro-1,5-naphthyridin-3-yl)-7-fluoroisoquinolin-3-yl)amino)-6-methyl-5,6-dihydro-4H-pyrazolo[1,5-d][1,4]diazepin-7(8H)-one] was 0.02 nM. For `Cc1c(-c2cc3cc(Nc4cc5n(n4)CC(=O)N(C)CC5)ncc3cc2F)cnc2c(=O)n(C)[nH]c12` [Compound 209, 2-((6-(2,7-dimethyl-3-oxo-2,3-dihydro-1H-pyrazolo[4,3-b]pyridin-6-yl)-7-fluoroisoquinolin-3-yl)amino)-6-methyl-5,6-dihydro-4H-pyrazolo[1,5-d][1,4]diazepin-7(8H)-one] the value was 1.9 nM; for `CNCc1cncc(-c2cc3cc(Nc4cc5n(n4)CC(=O)N(C)CC5)ncc3cc2F)c1C` [Compound 210, 2-((7-fluoro-6-(4-methyl-5-((methylamino)methyl)pyridin-3-yl)isoquinolin-3-yl)amino)-6-methyl-5,6-dihydro-4H-pyrazolo[1,5-d][1,4]diazepin-7(8H)-one], 37 nM. For `Cc1c(CN)cncc1-c1cc2cc(Nc3cc4n(n3)CC(=O)N(C)CC4)ncc2cc1F` [Compound 211, 2-((6-(5-(aminomethyl)-4-methylpyridin-3-yl)-7-fluoroisoquinolin-3-yl)amino)-6-methyl-5,6-dihydro-4H-pyrazolo[1,5-d][1,4]diazepin-7(8H)-one] the value was 19 nM. With `Cc1cc(CN)ncc1-c1cc2cc(Nc3cc4n(n3)CC(=O)N(C)CC4)ncc2cc1F` [Compound 212, 2-((6-(6-(aminomethyl)-4-methylpyridin-3-yl)-7-fluoroisoquinolin-3-yl)amino)-6-methyl-5,6-dihydro-4H-pyrazolo[1,5-d][1,4]diazepin-7(8H)-one], the inhibitory constant (Ki) came out at 50 nM. In the case of `Cc1cc(CN)ccc1-c1cc2cc(Nc3cc4n(n3)CC(=O)N(C)CC4)ncc2cc1F` [Compound 213, 2-((6-(4-(aminomethyl)-2-methylphenyl)-7-fluoroisoquinolin-3-yl)amino)-6-methyl-5,6-dihydro-4H-pyrazolo[1,5-d][1,4]diazepin-7(8H)-one], the Ki stood at 25 nM. As to `CN1CCc2cc(Nc3cc4cc(-c5cccc6c5CNC6)c(F)cc4cn3)nn2CC1=O` [Compound 215, 2-((7-fluoro-6-(isoindolin-4-yl)isoquinolin-3-yl)amino)-6-methyl-5,6-dihydro-4H-pyrazolo[1,5-d][1,4]diazepin-7(8H)-one], the inhibition constant (Ki) stood at 364 nM. The value for `Cc1c(N)cnnc1-c1cc2cc(Nc3cc4n(n3)CC(=O)N(C)CC4)ncc2cc1F` [Compound 216, 2-((6-(5-amino-4-methylpyridazin-3-yl)-7-fluoroisoquinolin-3-yl)amino)-6-methyl-5,6-dihydro-4H-pyrazolo[1,5-d][1,4]diazepin-7(8H)-one] was 2.3 nM; that for `CNCc1cccc(-c2cc3cc(Nc4cc5n(n4)CC(=O)N(C)CC5)ncc3cc2F)c1C` [Compound 217, 2-((7-fluoro-6-(2-methyl-3-((methylamino)methyl)phenyl)isoquinolin-3-yl)amino)-6-methyl-5,6-dihydro-4H-pyrazolo[1,5-d][1,4]diazepin-7(8H)-one] was 64 nM.

For the compound `CNCc1ccc(F)c(-c2ccc3cnc(Nc4cc5n(n4)CC(=O)N(C)CC5)cc3c2)c1C` [Compound 219, 2-((6-(6-fluoro-2-methyl-3-((methylamino)methyl)phenyl)isoquinolin-3-yl)amino)-6-methyl-5,6-dihydro-4H-pyrazolo[1,5-d][1,4]diazepin-7(8H)-one], the inhibitory constant (Ki) amounted to 7 nM. Turning to `CNCc1cc(-c2ccc3cnc(Nc4cc5n(n4)CC(=O)N(C)CC5)cc3c2)c(F)cc1C` [Compound 220, 2-((6-(2-fluoro-4-methyl-5-((methylamino)methyl)phenyl)isoquinolin-3-yl)amino)-6-methyl-5,6-dihydro-4H-pyrazolo[1,5-d][1,4]diazepin-7(8H)-one], the Ki came out at 176 nM.

Take `Cc1c(-c2cc3cc(Nc4cc5n(n4)CC(=O)N(C)CC5)ncc3cc2F)ccc2c1CNC2` [Compound 221, 2-((7-fluoro-6-(4-methylisoindolin-5-yl)isoquinolin-3-yl)amino)-6-methyl-5,6-dihydro-4H-pyrazolo[1,5-d][1,4]diazepin-7(8H)-one]: the Ki was found to be 97 nM. Consider `CNCc1cc(C)c(-c2ccc3cnc(Nc4cc5n(n4)CC(=O)N(C)CC5)cc3c2)c(F)c1` [Compound 222, 2-((6-(2-fluoro-6-methyl-4-((methylamino)methyl)phenyl)isoquinolin-3-yl)amino)-6-methyl-5,6-dihydro-4H-pyrazolo[1,5-d][1,4]diazepin-7(8H)-one], for which the inhibitory constant (Ki) came out at 5.2 nM. Turning to `Cc1c(-c2c(F)cc3cnc(Nc4cc5n(n4)CC(=O)N(C)CC5)cc3c2F)cnc2c1NCCO2` [Compound 223, 2-((5,7-difluoro-6-(8-methyl-2,3-dihydro-1H-pyrido[2,3-b][1,4]oxazin-7-yl)isoquinolin-3-yl)amino)-6-methyl-5,6-dihydro-4H-pyrazolo[1,5-d][1,4]diazepin-7(8H)-one], the inhibitory constant (Ki) came out at 0.04 nM. As to `Cc1c(N)cncc1-c1cc2cc(Nc3cc4n(n3)CC(=O)NCC43CC3)ncc2cc1F` [Compound 224, 2′-((6-(5-amino-4-methylpyridin-3-yl)-7-fluoroisoquinolin-3-yl)amino)-5′,6′-dihydrospiro[cyclopropane-1,4′-pyrazolo[1,5-d][1,4]diazepin]-7′(8′H)-one], the Ki was determined as 0.013 nM.

For the compound `Cc1c(N)cncc1-c1cc(F)c2cnc(Nc3cc4n(n3)CC(=O)NCC43CC3)cc2c1` [Compound 225, 2′-((6-(5-amino-4-methylpyridin-3-yl)-8-fluoroisoquinolin-3-yl)amino)-5′,6′-dihydrospiro[cyclopropane-1,4′-pyrazolo[1,5-d][1,4]diazepin]-7′(8′H)-one], the Ki amounted to 0.013 nM. In the case of `CN1CCc2cc(Nc3cc4cc(-c5cncc(N)c5C(F)(F)F)c(F)cc4cn3)nn2CC1=O` [Compound 227, 2-((6-(5-amino-4-(trifluoromethyl)pyridin-3-yl)-7-fluoroisoquinolin-3-yl)amino)-6-methyl-5,6-dihydro-4H-pyrazolo[1,5-d][1,4]diazepin-7(8H)-one], the inhibition constant Ki was determined as 0.29 nM.
